We go through twelve molecules from patent US10494384B2, “Urea peptoid boric acid compound, pharmaceutical composition thereof, preparation method therefor, and uses thereof” (Peking University, priority 2015, dated 2019).

Assay [1] deals with T1, 20S proteasome extracted from rat liver (PGPH) (Rattus norvegicus, UniProt P28073+Q9JHW0).
T1 construct: 20S proteasome extracted from rat liver; from tissue; host or cells: rat liver
The assay is described as follows: inhibition of 20S proteasome, PGPH activity (fluorescent peptide). The note with it: for inhibition at 0.2 µM / inhibition at 2 µM / inhibition at 20 µM: rat liver 20S proteasome, 37° C., 1 h, read-out: inhibition rates (%) PGPH. In kind it is biochemical. The protocol: (§1) 1 μg of 20S proteasome extracted from rat liver was incubated with a 100 μL solution containing various concentrations of the present compounds, 50 μM fluorescent peptides and 20 mM Tris-HCl at 37° C. for 1 h, respectively. […] 0.1% DMSO was used as a solvent control. Compared with the fluorescence of solvent control, an inhibition rate or IC50 value was calculated.

Assay [2] deals with T2, 20S proteasome extracted from rat liver (CT-L) (Rattus norvegicus, UniProt P18421+P28075).
T2 construct: 20S proteasome extracted from rat liver; from tissue; host or cells: rat liver
As to the kind of experiment: inhibition of 20S proteasome, CT-L activity (fluorescent peptide). It is filed as biochemical. The following applies: for inhibition at 0.2 µM / inhibition at 2 µM / inhibition at 20 µM: rat liver 20S proteasome, 37° C., 1 h, read-out: inhibition rates (%) CT-L. The protocol: as §1

Assay [3] concerns Hela, human cervical carcinoma. As to the kind of experiment: preliminary anti-tumor screening in vitro, MTT method. In kind it is cell-based. The following applies: read-out: inhibition rates (%) Hela. The protocol:
(§2) The test methods used in this test example are routine methods for anti-tumor activities test in pharmaceutical area, for example, referring to the following reference: (J. Immunol Method, 1983, 65, 55).
(§3) Test models: A: MTT method (Hela, human cervical carcinoma); B: SRB method (BGC-823, […]); C: SRB method (MCF-7, breast cancer); D: SRB method (A549, human lung cancer); E: SRB method (PC3M1E8, prostate cancer).
(§4) Inhibition rates of the compounds were measured under concentrations of 0.1 μM, 1 μM or 10 μM.
For orientation: Tetrazolium assays rely on reduction of a dye to a coloured formazan, in cell work by metabolically active cells.

The next assay has as its system A549, human lung cancer. The assay is described as follows: preliminary anti-tumor screening in vitro, SRB method. It is filed as cell-based. The note with it: read-out: inhibition rates (%) A549. The protocol:
as §2, §3, §4

The test system of a further assay is BGC-823, liver cancer. The assay is described as above. In kind it is cell-based. The following applies: Homo sapiens, read-out: inhibition rates (%) BGC-823. The protocol:
as §2, §3, §4

The subject of a further assay is MCF-7, breast cancer. The assay is described as above. It is filed as cell-based. The following applies: Homo sapiens, read-out: inhibition rates (%) MCF-7; for inhibition at 0.1 µM: MCF7, 0.1 μM; for inhibition at 1 µM: MCF7, 1 μM; for inhibition at 10 µM: MCF7, 10 μM. The protocol:
as §2, §3, §4

For assay [4], the target named is T3, 20S proteasome extracted from rat liver (T-L) (Rattus norvegicus, UniProt P40112+Q9JHW0).
T3 construct: 20S proteasome extracted from rat liver; from tissue; host or cells: rat liver
As to the kind of experiment: inhibition of 20S proteasome, T-L activity (fluorescent peptide). It is filed as biochemical. The following applies: for inhibition at 0.2 µM / inhibition at 2 µM / inhibition at 20 µM: 37° C., 1 h, read-out: inhibition rates (%) T-L. The protocol: as §1

Where two headings read alike, the source gives them in different places. Where only a bound is given, the exact number is not on record here.

One may read the inhibition as the drop in the measured response relative to a control, in per cent. In general, IC50 refers to the concentration that inhibits the measured activity by half.

Consider `CC(C)C[C@H](NC(=O)[C@H](Cc1ccccc1)NC(=O)[C@H](Cc1ccccc1)NC(=O)Nc1cccc(OCc2ccccc2)c1)B(O)O` [Example 23, N-L-phenylalanyl-L-phenylalanyl-L-leucine borate-N′-(3-benzyloxy-phenylamine)-urea], for which the inhibition at 0.2 µM was -13.7% in assay [1], 49.5% in assay [2] and -0.748% in assay [4] (rat liver 20S proteasome). In addition, the inhibition at 2 µM is -20.5% in assay [1], 91% in assay [2] and 47.2% in assay [4] (rat liver 20S proteasome). In addition, the results for the inhibition at 20 µM in assay [1], in assay [2] and in assay [4] (rat liver 20S proteasome) were -20.3%, 94.2% and 90.5%, respectively. For the same molecule, the inhibition at 0.1 µM was 17.4% in assay [3]; 32.7% in the assay with A549, human lung cancer; 43.2% in the assay on BGC-823, liver cancer; 23.7% in the assay on MCF-7, breast cancer. The inhibition at 1 µM amounted to 42.5% in assay [3]; 68.8% with A549, human lung cancer; 42.7% in the assay with BGC-823, liver cancer; 56% in the assay on MCF-7, breast cancer. Moreover, the inhibition at 10 µM in assay [3] came to 75.7%; in the assay on A549, human lung cancer, 81.3%; in the assay on BGC-823, liver cancer it was 81.6%; with MCF-7, breast cancer it was 73%.
For `CC(C)C[C@H](NC(=O)[C@H](Cc1ccccc1)NC(=O)N1CCc2ccccc2C1=O)B(O)O` [Example 37, N-(1-oxo-1,2,3,4-dihydroisoquinolin-2-ylformyl)-L-phenylalanyl-L-leucine borate], the IC50 in assay [1] was 1240 nM; in assay [2], 660 nM; in assay [4] (rat liver 20S proteasome, read-out: IC50 (μM) T-L), greater than 20 µM.
In the case of `COc1ccc(NC(=O)[C@H](Cc2ccccc2)NC(=O)N[C@@H](CC(C)C)B(O)O)cc1` [Example 8, N-L-leucine borate-N′-(p-methoxy-phenylcarbamoyl)-L-phenylalanine-urea], the inhibition at 0.2 µM in assay [1] was 1.62%; in assay [2], 2.87%; in assay [4] (rat liver 20S proteasome) it was -1.39%. In addition, the inhibition at 2 µM came to 7.36% in assay [1], 59.7% in assay [2] and 9.32% in assay [4] (rat liver 20S proteasome). Also, the inhibition at 20 µM in assay [1] was determined as 63.1%; in assay [2], 89.4%; in assay [4] (rat liver 20S proteasome), 30.6%. The inhibition at 0.1 µM in assay [3] is 12.7%; in the assay with A549, human lung cancer, 1.01%; in the assay on BGC-823, liver cancer it was 4.74%; with MCF-7, breast cancer, 4.54%. The inhibition at 1 µM in assay [3] came to 13.4%; in the assay with A549, human lung cancer it was 8.26%; in the assay with BGC-823, liver cancer, 5.62%; in the assay on MCF-7, breast cancer, 8.51%. For the same molecule, the inhibition at 10 µM in assay [3] turned out to be 32.9%; with A549, human lung cancer, 39.2%; with BGC-823, liver cancer, 15.6%; with MCF-7, breast cancer it was 16.4%.
Turning to `CC(C)C[C@H](NC(=O)[C@H](Cc1ccccc1)NC(=O)NCc1cnccn1)B(O)O` [Example 2, N-L-phenylalanyl-L-leucine borate-N′-pyrazin-2-ylmethylamine-urea], the IC50 in assay [1] came to 790 nM; in assay [2], 50 nM; in assay [4], 11.4 µM.
For the molecule `CC(C)C[C@H](NC(=O)N[C@@H](Cc1ccccc1)C(=O)Nc1cccc(OCc2ccccc2)c1)B(O)O` [Example 4, N-L-leucine borate-N′-(3-benzyloxy-phenylcarbamoyl)-L-phenylalanine-urea], the figures for the inhibition at 0.2 µM in assay [1], in assay [2] and in assay [4] (rat liver 20S proteasome) were 2.03%, -14.2% and 6.92%, respectively. In addition, the values for the inhibition at 2 µM in assay [1], in assay [2] and in assay [4] (rat liver 20S proteasome) were 2.19%, 10.4% and 4.38%, respectively. Also, the inhibition at 20 µM in assay [1] was determined as 62.7%; in assay [2] it was 77.7%; in assay [4] (rat liver 20S proteasome), 36.2%. For the same molecule, the inhibition at 0.1 µM in assay [3] is 9.59%; in the assay with A549, human lung cancer it was 6.4%; in the assay on BGC-823, liver cancer, 6.67%; with MCF-7, breast cancer, 6.46%. For the same molecule, the inhibition at 1 µM is 11.3% in assay [3]; 16.2% in the assay on A549, human lung cancer; 4.64% with BGC-823, liver cancer; 9.07% in the assay on MCF-7, breast cancer. Moreover, the inhibition at 10 µM in assay [3] is 25.4%; with A549, human lung cancer it was 31.1%; in the assay with BGC-823, liver cancer it was 13.1%; in the assay on MCF-7, breast cancer it was 9.93%.
Turning to `COc1ccc(CNC(=O)[C@H](Cc2ccccc2)NC(=O)N[C@@H](CC(C)C)B(O)O)cc1` [Example 1, N-L-leucine borate-N′-(p-methoxy-benzylcarbamoyl)-L-phenylalanine-urea], the values for the inhibition at 0.2 µM in assay [1], in assay [2] and in assay [4] (rat liver 20S proteasome) were 40.9%, 33.8% and -6.55%, respectively. The results for the inhibition at 2 µM in assay [1], in assay [2] and in assay [4] (rat liver 20S proteasome) were 87.9%, 86.8% and 22.8%, respectively. Also, the inhibition at 20 µM in assay [1] was determined as 96.6%; in assay [2], 93.6%; in assay [4] (rat liver 20S proteasome), 35.5%. Moreover, the inhibition at 0.1 µM came to 8.67% in assay [3]; 1.44% in the assay with A549, human lung cancer; 7.79% with BGC-823, liver cancer; 1% in the assay with MCF-7, breast cancer. Further, the inhibition at 1 µM is 28% in assay [3]; 35.3% in the assay on A549, human lung cancer; 14.9% in the assay with BGC-823, liver cancer; 7.46% in the assay on MCF-7, breast cancer. Further, the inhibition at 10 µM in assay [3] was found to be 38.5%; in the assay on A549, human lung cancer, 50.2%; in the assay on BGC-823, liver cancer it was 32%; in the assay with MCF-7, breast cancer, 22.9%.
On to `Cc1cccc(CNC(=O)N[C@@H](Cc2ccccc2)C(=O)N[C@@H](CC(C)C)B(O)O)c1C` [Example 30, N-L-phenylalanyl-L-leucine borate-N′-2,3-dimethyl-benzylamine-urea], for which the IC50 in assay [1] is 130 nM; in assay [2], 4 nM; in assay [4], 0.34 µM.
Regarding `CC(C)C[C@H](NC(=O)[C@H](Cc1ccccc1)NC(=O)N(C)Cc1ccccc1)B(O)O` [Example 29, N-L-phenylalanyl-L-leucine borate-N′—(N-methyl-benzylamine)-urea], the figures for the IC50 in assay [2] and in assay [4] were 2 nM and 0.19 µM, respectively.
For the molecule `CC(C)C[C@H](NC(=O)[C@H](Cc1ccccc1)NC(=O)NCc1cccc([N+](=O)[O-])c1)B(O)O` [Example 36, N-L-phenylalanyl-L-leucine borate-N′-3-nitro-benzylamine-urea], the IC50 in assay [1] was found to be 140 nM; in assay [2], 3 nM; in assay [4], 0.19 µM.
For `CC(C)C[C@H](NC(=O)[C@H](Cc1ccccc1)NC(=O)NCCc1ccccc1)B(O)O` [Example 25, N-L-phenylalanyl-L-leucine borate-N′-phenylethylamine-urea], in that order: 240 nM, 20 nM and 1.05 µM.
Taken in the same sequence, the figures for `CC(C)C[C@H](NC(=O)[C@H](Cc1ccccc1)NC(=O)NCc1cc(Cl)ccc1Cl)B(O)O` [Example 31, N-L-phenylalanyl-L-leucine borate-N′-2,5-dichloro-benzylamine-urea] were 480 nM, 40 nM and 0.53 µM.
As for `CC(C)C[C@H](NC(=O)[C@H](Cc1ccccc1)NC(=O)NCc1ccco1)B(O)O` [Example 33, N-L-phenylalanyl-L-leucine borate-N′-furan-2-ylmethylamine-urea], the figures for the IC50 in assay [1], in assay [2] and in assay [4] were 80 nM, 20 nM and 5.32 µM, respectively.
